melting point [°C] | Structure (SMILES)
164 to 165 | COC(=O)[C@@H]1CC[C@H](n2nc(-c3c(-c4ccccc4)nn4ccccc34)ccc2=O)C(=O)C1 (relative stereo) [Example 10, cis-3-[2-(4-Methoxycarbonyl-2-oxocyclohexyl)-3-oxo-2,3-dihydropyridazin-6-yl]-2-phenylpyrazolo[1,5-a]pyridine]
146 to 150 | COc1ccc2c(c1)CC[C@@H](O)[C@@H]2n1nc(-c2c(-c3ccccc3)nn3ccccc23)ccc1=O (relative stereo) [Example 30, trans-3-[2-(6-Hydroxy-2-methoxy-5,6,7,8-tetrahydro-5-naphthyl)-3-oxo-2,3-dihydropyridazin-6-yl]-2-phenylpyrazolo[1,5-a]pyridine]
115 to 117 | O=c1ccc(-c2c(-c3ccccc3)nn3ccccc23)nn1C1CCCCC1 [Example 1, 3-(2-cyclohexyl-3-oxo-2,3-dihydropyridazin-6-yl)-2-phenylpyrazolo[1,5-a]pyridine]
250 to 251 | O=C(O)CN1CCC(n2nc(-c3c(-c4ccccc4)nn4ccccc34)ccc2=O)C1=O (centres unmarked) [Example 42, 3-[2-(1-Carboxymethyl-2-oxo-pyrrolidin-3-yl)-3-oxo-2,3-dihydropyridazin-6-yl]-2-phenylpyrazolo[1,5-a]pyridine]
202 to 204 | O=C(CC1=C(n2nc(-c3c(-c4ccccc4)nn4ccccc34)ccc2=O)CCCC1)N1CCOCC1 [Example 83, 3-[2-(2-Morpholinocarbonylmethyl-1-cyclohexenyl)-3-oxo-2,3-dihydropyridazin-6-yl]-2-phenylpyrazolo[1,5-a]-pyridine]
180.5 to 182.5 | O=C(CC1=C(n2nc(-c3c(-c4ccccc4)nn4ccccc34)ccc2=O)CCCC1)N1CCSCC1 [Example 80, 3-[2-{2-(Thiomorpholin-4-ylcarbonyl)methyl-1-cyclohexenyl}-3-oxo-2,3-dihydropyridazin-6-yl]-2-phenylpyrazolo[1,5-a]pyridine]
92.5 to 93 | O=C(O)CCCNC(=O)CC1=C(n2nc(-c3c(-c4ccccc4)nn4ccccc34)ccc2=O)CCCC1 [Example 46, 3-[2-(2-(N-(3-Carboxypropyl)carbamoyl)methyl-1-cyclohexenyl)-3-oxo-2,3-dihydropyridazin-6-yl]-2-phenylpyrazolo[1,5-a]pyridine]
85 to 87 | CON=C1CCCCC1n1nc(-c2c(-c3ccccc3)nn3ccccc23)ccc1=O (centres unmarked) [Example 90, 3-[2-{2-(Methoxyimino)cyclohexyl}-3-oxo-2,3-dihydropyridazin-6-yl]-2-phenylpyrazolo[1,5-a]pyridine]
184 to 185 | O=C(O)CCC1=C(n2nc(-c3c(-c4ccccc4)nn4ccccc34)ccc2=O)CCCC1 [Example 52, 3-[2-{2-(2-carboxyethyl)-1-cyclohexenyl}-3-oxo-2,3-dihydropyridazin-6-yl]-2-phenylpyrazolo[1,5-a]-pyridine]
111 to 113 | O=C(CCC1=C(n2nc(-c3c(-c4ccccc4)nn4ccccc34)ccc2=O)CCCC1)OCc1ccccc1 [Example 66, 3-[2-{2-(2-benzyloxycarbonylethyl)-1-cyclohexenyl}-3-oxo-2,3-dihydropyridazin-6-yl]-2-phenylpyrazolo[1,5-a]pyridine]
126 to 127 | O=C1CCCC(n2nc(-c3c(-c4ccccc4)nn4ccccc34)ccc2=O)C1 (centres unmarked) [Example 102, 3-[2-(3-oxocyclohexyl)-3-oxo-2,3-dihydropyridazin-6-yl]-2-phenylpyrazolo[1,5-a]pyridine]
158 | COc1ccc(-n2nc(-c3c(-c4ccccc4)nn4ccccc34)ccc2=O)cc1 [Example 100, 3-[2-(4-Methoxyphenyl)-3-oxo-2,3-dihydropyridazin-6-yl]-2-phenylpyrazolo[1,5-a]pyridine]
212 to 213 | O=C(O)C[C@H]1CC[C@H](n2nc(-c3c(-c4ccccc4)nn4ccccc34)ccc2=O)C1 (relative stereo) [Example 40, trans-3-[2-(3-Carboxymethylcyclopentyl)-3-oxo-2,3-dihydropyridazin-6-yl]-2-phenylpyrazolo[1,5-a]pyridine]
101 to 105 | CNC1CCN(C(=O)CC2=C(n3nc(-c4c(-c5ccccc5)nn5ccccc45)ccc3=O)CCCC2)CC1 (hydrate or solvate) [Example 86, 3-[2-{2-(4-Methylaminopiperidinocarbonyl)methyl-1-cyclohexenyl}-3-oxo-2,3-dihydropyridazin-6-yl]-2-phenylpyrazolo[1,5-a]pyridine]
164 | O=C(O)C1CCCCC1n1nc(-c2c(-c3ccccc3)nn3ccccc23)ccc1=O (centres unmarked) [Example 109, 3-[2-(2-carboxycyclohexyl)-3-oxo-2,3-dihydropyridazin-6-yl]-2-phenylpyrazolo[1,5-a]pyridine]
117 to 118 | O=c1ccc(-c2c(-c3ccccc3)nn3ccccc23)nn1C1CCCC(O)C1 (centres unmarked) [Example 104, 3-[2-(3-hydroxycyclohexyl)-3-oxo-2,3-dihydropyridazin-6-yl]-2-phenylpyrazolo[1,5-a]pyridine]
197 to 198 | C[C@@]1(O)CCCC[C@H]1n1nc(-c2c(-c3ccccc3)nn3ccccc23)ccc1=O (relative stereo) [Example 35, 3-[2-{(1R*,2R*)-2-hydroxy-2-methylcyclohexyl}-3-oxo-2,3-dihydropyridazin-6-yl]-2-phenylpyrazolo[1,5-a]-pyridine]
249.5 to 250.5 | O=C(CC1=C(n2nc(-c3c(-c4ccccc4)nn4ccccc34)ccc2=O)CCCC1)N1CCN(C(c2ccccc2)(c2ccccc2)c2ccccc2)CC1 [Example 82, 3-[2-{2-(4-Triphenylmethylpiperazin-1-ylcarbonyl)methyl-1-cyclohexenyl}-3-oxo-2,3-dihydropyridazin-6-yl]-2-phenylpyrazolo[1,5-a]pyridine]
195 to 197 | O=c1ccc(-c2c(-c3ccccc3)nn3ccccc23)nn1[C@@H]1CCCC[C@@H]1O (relative stereo) [Example 4, cis-3-[2-(2-hydroxycyclohexyl)-3-oxo-2,3-dihydropyridazin-6-yl]-2-phenylpyrazolo[1,5-a]pyridine]
252 to 253 | O=C(O)C[C@H]1CCCC[C@H]1n1nc(-c2c(-c3ccccc3)nn3ccccc23)ccc1=O (relative stereo) [Example 38, cis-3-[2-(2-carboxymethylcyclohexyl)-3-oxo-2,3-dihydropyridazin-6-yl]-2-phenylpyrazolo[1,5-a]pyridine]
179 to 180 | O=C1OCCC1n1nc(-c2c(-c3ccccc3)nn3ccccc23)ccc1=O (centres unmarked) [Example 25, 3-[2-(2-Oxo-2,3,4,5-tetrahydrofuran-3-yl)-3-oxo-2,3-dihydropyridazin-6-yl]-2-phenylpyrazolo[1,5-a]pyridine]
296 to 298 | O=c1ccc(-c2c(-c3ccccc3)nn3ccccc23)nn1[C@H]1CC[C@@H](C(=O)O)CC1 [Example 47(1), cis-3-[2-(4-Carboxycyclohexyl)-3-oxo-2,3-dihydropyridazin-6-yl]-2-phenylpyrazolo[1,5-a]pyridine]

Structure (SMILES) | melting point [°C]
CC(C)(C)OC(=O)/C=C1/CCCCC1n1nc(-c2c(-c3ccccc3)nn3ccccc23)ccc1=O (centres unmarked) [Example 98, (Z)-3-[2-{2-(tert-butoxycarbonyl-methylene)cyclohexyl}-3-oxo-2,3-dihydropyridazin-6-yl]-2-phenylpyrazolo[1,5-a]pyridine] | 171 to 172

— patent publication US6355640B1, “Pyrazolopyridine adenosine antagonists” (Fujisawa Pharmaceutical Co., Ltd., priority 1993, dated 2002)
